Assay results taken from EP4678643A1, “KRAS INHIBITOR COMPOUND, PHARMACEUTICAL COMPOSITION THEREOF, AND USE THEREOF” (Sunshine Lake Pharma Co., Ltd., priority 2023, dated 2024).
Where two headings read alike, the source gives them in different places.

What was measured:
[1] = tested on: pERK in H358 cells (KRAS p.G12C); assay: Inhibitory effect on intracellular pERK by In-Cell Western assay, H358; format: cell-based; conditions: Homo sapiens, NCI-H358, pERK inhibition, compound incubation 3 h
Method: (§1) 1. Determination of Inhibitory Effect on Intracellular pERK by In-Cell Western Assay
(§2) (1) On the first day, the following cells were revived and cultured with the corresponding culture medium and incubated at 37 °C, 5% CO2 until confluence.
(§3) (2) On the third day, the culture medium was removed, the cells were rinsed once with DPBS, 2 mL of TrypLE™ trypsin was added for digestion, and the cells were placed at room temperature until the cells detached. (3) 5 mL fresh culture medium was added to resuspend cells to terminate the digestion, and the cells were gently pipetted and centrifuged at 1000 rpm for 5 minutes at room temperature. (4) The supernatant was removed, and 5 mL fresh culture medium was added to resuspend the cells and count cells. (5) The cells were plated in a 384-well plate with appropriate cell concentration by adjusting with complete culture medium and incubated at 37 °C, 5% CO2 for overnight. (6) 200 nL of the prepared serial dilution compound (DMSO final concentration was 0.5%) was added and incubated at 37 °C, CO2 for 3 h (HPAC cell lines for 1 h). (7) The cells were fixed. (8) The cells were washed twice with PBS. (9) The blocking solution was added and the cells were incubated at room temperature for 1 h. (10) The blocking solution was removed, and the primary antibody (phospho-ERK Rabbit mAb + GAPDH (D4C6R) Mouse mAb) was added and the cells were incubated at 4 °C for overnight. (11) The cells were washed twice with PBST (PBS + 0.05% Tween 20) for 2 minutes each time. (12) PBST was removed and secondary antibody (IRDye 800CW Goat anti-Rabbit IgG (H+L) + IRDye 680RD Goat anti Mouse IgG (H+L)) was added and incubated away from light at room temperature. (14) Secondary antibody was discarded and the cell was washed twice with PBST, 2 minutes each time. (15) 384-well plate was inverted and centrifuged at 1000 rpm at room temperature for 1 minute, and the 384-well plate was scanned with Odyssey CLx. (16) Data analysis: • a) Assay stability check was peformed by using DMSO and reference control data: [formula] [formula] • b) nonlinear fitting of Compound IC50: Y = Bottom + (Top−Bottom)/(1+10^(∧)((LogIC50−X)×HillSlope)). [formula]

[2] = tested on: pERK in MKN1 cells (KRAS WTdep); assay: Inhibitory effect on intracellular pERK by In-Cell Western assay, MKN1; format: cell-based; conditions: Homo sapiens, MKN-1, pERK inhibition, compound incubation 3 h
Method: as §1, §2, §3

[3] = tested on: pERK in A549 cells (KRAS p.G12S); assay: Inhibitory effect on intracellular pERK by In-Cell Western assay, A549; format: cell-based; conditions: Homo sapiens, pERK inhibition, compound incubation 3 h
Method: as §1, §2, §3

[4] = tested on: pERK in HCT 116 cells (KRAS p.G13D); assay: Inhibitory effect on intracellular pERK by In-Cell Western assay, HCT 116; format: cell-based; conditions: Homo sapiens, pERK inhibition, compound incubation 3 h
Method: as §1, §2, §3

[5] = tested on: pERK in AGS cells (KRAS G12D); assay: Inhibitory effect on intracellular pERK by In-Cell Western assay, AGS; format: cell-based; conditions: Homo sapiens, AGS, pERK inhibition, compound incubation 3 h, read-out: AGS, IC50 (nM) KRAS p.G12D
Method: as §1, §2
as §3, with “CLx.” for “CLx. (16) Data analysis: • a) Assay stability check was peformed by using DMSO and reference control data: [formula] [formula] • b) nonlinear fitting of Compound IC50: Y = Bottom + (Top−Bottom)/(1+10^(∧)((LogIC50−X)×HillSlope)). [formula]”

in vivo = conditions: mouse
Method: (§4) Pharmacokinetic evaluation of the compounds of the present invention by intravenous injection or oral gavage in mice
(§5) The inventors conducted a pharmacokinetic evaluation of the compounds of this invention in mice.
(§6) The compounds of the present invention were administered to test animals in the form of a solution of 5% DMSO + 30% PEG400 + 65% saline, 10% DMSO + 10% Kolliphor HS15 + 80% Saline, 10% DMSO + 89% (25% SBE-B-CD) + (2% HCl), 20% PEG400 + 80% sterile water for injection, or 10% DMA + 10% HS15 + 30% PEG400 + 50% sterile water for injection. The animals were fasted for 12 hours before administration and had free access to water. For the intravenous administration group, the dose was 2 mg/kg/day, qd. Venous blood samples (approximately 0.15 mL) were collected at the following time points after administration: 0.083, 0.25, 0.5, 1.0, 2.0, 5.0, 7.0 and 24 hours. EDTA-K2 was pre-added to the blood collection tube as an anticoagulant. Blood samples were centrifuged at 12,000 rpm for 2 minutes, and plasma was collected and stored at -20°C or -70°C. For the intravenous administration group, the dose was 5 mg/kg/day, qd. Venous blood samples (approximately 0.15 mL) were collected at the following time points after administration: 0.25, 0.5, 1.0, 2.0, 5.0, 7.0 and 24 hours. EDTA-K2 was pre-added to the blood collection tube as an anticoagulant. Blood samples were centrifuged at 12,000 rpm for 2 minutes, and plasma was collected and stored at -20°C or -70°C.
(§7) The collected plasma samples were processed (frozen plasma was thawed at room temperature and vortexed for 15 seconds. 10-20 µL of plasma was added to 120-150 µL of acetonitrile solution containing the internal standard and vortexed for 5 minutes. The sample was centrifuged at 4,000 rpm for 5 minutes. 100 µL of the supernatant was added to 120-150 µL of methanol/water (v/v = 1/1) and mixed). The concentrations of the compounds in the plasma were analyzed by LC-MS/MS.

[6] = Pharmacokinetic evaluation by intravenous injection or oral gavage in mice
Method: as §4, §5, §6, §7

SMILES	IC50 [1]	IC50 [2]	IC50 [3]	IC50 [4]	IC50 ([5]; 3 h)	also measured
C#Cc1nc(-c2cc(O)cc3ccc(F)c(CC)c23)c(F)c2nc(OC[C@@]34CCCN3C[C@H](F)C4)nc(N3CCCOCC3)c12 [Compound 8]					7.1 nM	
C#Cc1c(F)ccc2cc(O)cc(-c3nc(C#C)c4c(N5CCCOCC5)nc(OC[C@@]56CCCN5C[C@H](F)C6)nc4c3F)c12 [Compound 7]	1.3 nM	3.3 nM	5.7 nM	11.6 nM	0.6 nM	
C#Cc1c(F)ccc2cc(O)cc(-c3nc(C#CC)c4c(N5CCCOCC5)nc(OCC56CC(=C)CN5CC(=C)C6)nc4c3F)c12 [Compound 14]					1.2 nM	
C#Cc1c(F)ccc2cc(O)cc(-c3nc(C#CC)c4c(N5CCCOCC5)nc(OC[C@@H]5CCCN5C)nc4c3F)c12 [Compound 12]					5.8 nM	
C#Cc1c(F)ccc2cc(O)cc(-c3nc(C#CC)c4c(N5CCCCC(F)C5)nc(OC[C@@]56CCCN5C[C@H](F)C6)nc4c3F)c12 (stereo partly drawn) [Compound 25]	0.8 nM	3 nM	2.3 nM	7.9 nM		IC50 [5]: 0.8 nM; F_AUCT NF ([6]; mice, 5 mg/kg/day ig administration versus 2 mg/kg/day iv): 23%; AUC(0-inf) ([6]; mouse, plasma, iv, 2 mg/kg/day): 10800 ng·h/mL; AUC(0-t) ([6]; mouse, plasma, iv, 2 mg/kg/day): 10600 ng·h/mL; Cmax ([6]; mouse, plasma, iv, 2 mg/kg/day): 9950 ng/mL; MRT last ([6]; mouse, plasma, iv, 2 mg/kg/day): 1.3 h; Tmax ([6]; mouse, plasma, iv, 2 mg/kg/day): 0.083 h; clearance ([6]; mouse, plasma, iv, 2 mg/kg/day): 3.2 mL/min/kg; half-life ([6]; mouse, plasma, iv, 2 mg/kg/day): 1.2 h; AUC(0-inf) ([6]; mouse, plasma, po, 5 mg/kg/day): 6140 ng·h/mL; AUC(0-t) ([6]; mouse, plasma, po, 5 mg/kg/day): 5960 ng·h/mL; Cmax ([6]; mouse, plasma, po, 5 mg/kg/day): 2660 ng/mL; MRT last ([6]; mouse, plasma, po, 5 mg/kg/day): 1.7 h; Tmax ([6]; mouse, plasma, po, 5 mg/kg/day): 0.42 h; half-life ([6]; mouse, plasma, po, 5 mg/kg/day): 1.3 h; pharmacokinetic properties in mice ([6]; result in words): good pharmacokinetic properties
C#Cc1nc(-c2cc(O)cc3cccc(Cl)c23)c(F)c2nc(OC[C@@]34CCCN3C[C@H](F)C4)nc(N3CCCOCC3)c12 [Compound 9]					17.2 nM	
C#Cc1c(F)ccc2cc(O)cc(-c3nc(C#CC)c4c(N5CCCOCC5)nc(OCC56CCCN5CCC6)nc4c3F)c12 [Compound 11]	2 nM	7.4 nM	20.2 nM	28.6 nM	2.6 nM	

Now from value to compound, other results behind:

IC50 [1]	IC50 [2]	IC50 [3]	IC50 [4]	IC50 ([5]; 3 h)	SMILES	also measured
3.9 nM	21.5 nM	15.1 nM	47.3 nM	3.2 nM	C#Cc1c(F)ccc2cc(O)cc(-c3nc(C#CCC)c4c(N5CCCCC(F)C5)nc(OC[C@@]56CCCN5C[C@H](F)C6)nc4c3F)c12 (stereo partly drawn) [Compound 26]	AUC(0-inf) (in vivo; iv, 2 mg/kg/day): 8110 ng·h/mL; AUC(0-t) (in vivo; iv, 2 mg/kg/day): 8050 ng·h/mL; Cmax (in vivo; iv, 2 mg/kg/day): 8280 ng/mL; MRT last (in vivo; iv, 2 mg/kg/day): 1.2 h; Tmax (in vivo; iv, 2 mg/kg/day): 0.083 h; Vd (in vivo; iv, 2 mg/kg/day): 0.3 L/kg; clearance (in vivo; iv, 2 mg/kg/day): 4.1 mL/min/kg; half-life (in vivo; iv, 2 mg/kg/day): 1 h; AUC(0-inf) (in vivo; po, 5 mg/kg/day): 4240 ng·h/mL; AUC(0-t) (in vivo; po, 5 mg/kg/day): 4120 ng·h/mL; Cmax (in vivo; po, 5 mg/kg/day): 1630 ng/mL; MRT last (in vivo; po, 5 mg/kg/day): 1.8 h; Tmax (in vivo; po, 5 mg/kg/day): 0.5 h; half-life (in vivo; po, 5 mg/kg/day): 1.3 h
				4.1 nM	CCC#Cc1nc(-c2cc(O)cc3ccc(F)c(CC)c23)c(F)c2nc(OC[C@@]34CCCN3C[C@H](F)C4)nc(N3CCCCC(=O)C3)c12 [Compound 33]	
2.2 nM	3.6 nM	6.2 nM	15.2 nM	1.4 nM	C#Cc1c(F)ccc2cc(O)cc(-c3nc(C#CC)c4c(N5CCCCCC5)nc(OC[C@@]56CCCN5C[C@H](F)C6)nc4c3F)c12 [Compound 29]	
				6.8 nM	C#Cc1c(F)ccc2cc(O)cc(-c3nc(C#CCC)c4c(N5CCCCCC5)nc(OC[C@@]56CCCN5C[C@H](F)C6)nc4c3F)c12 [Compound 30]	
2 nM	4.5 nM	5.1 nM	19.5 nM	5.2 nM	C#Cc1c(F)ccc2cc(O)cc(-c3nc(C#CC)c4c(N5CCCCC(F)(F)C5)nc(OC[C@@]56CCCN5C[C@H](F)C6)nc4c3F)c12 [Compound 27]	
				6.4 nM	C#Cc1c(F)ccc2cc(O)cc(-c3nc(C#CC)c4c(N5CCCOCC5)nc(OCC5(CN6CCOCC6)CC5)nc4c3F)c12 [Compound 19]	
